Measured values reported in US10114013B2, “Method for detection of coenzyme Q10” (Berg LLC, priority 2012, dated 2018).
Where “and” joins values, the source holds several entries; their conditions need not be identical. Identical values can stand only once.

Columns and labels:
HepG2 cells [1] = assay: CoQ10 level in HepG2 cells after CoQ10 treatment; Buffer A/B/C extraction, UV spectrophotometry at 275 nm; assay type: in vitro ADME; settings: for average level of CoQ10 in cells: Hep2G cells; for CoQ10 / Conc (pM/cell): HepG2 cells, OD275 detection, replicates 1-3
Description: (§1) The assay for quantitation of CoQ10 was used to determine the CoQ10 levels in various cells lines after CoQ10 treatment for various times. The cell lines used in the studies were the normal human aortic smooth muscle cells (HASMC), the hepatic cancer cell line HepG2, and the human pancreatic carcinoma cell line PaCa2. All cells lines are commercially available and were maintained according to instruction from the manufacturer/supplier of the cell lines.
200 μl of various concentrations of CoQ10 in Buffer A, or Buffer A alone, were aliquoted into glass vials and 10 μl of Buffer B was added to each vial. Cells treated with various concentrations of CoQ10 were collected at predetermined time points and washed. Cell pellet samples (e.g., about 10^5-10^7 cells) were combined with 200 μl of Buffer A and 10 μl of Buffer B, and the cell pellets were resuspended in the buffer mixture. The sample mixture turned opaque upon mixing Buffers A and B with cells. The mixtures were transferred into glass vials.
The glass vials from step 2 were warmed to 65° C. for 1 minute. The samples turned clear upon heating, and again became opaque upon cooling to room temperature.
A 200 μl aliquot of Buffer C was added to each vial. The vials were again warmed to 65° C. The solution in the vials spontaneously partitioned into two phases, with the second extraction buffer layer (upper layer) containing substantially all of the CoQ10 material.
A 50 μl sample of the upper extraction layer was removed and analyzed on a UV spectrometer at 275 nm. The amount of CoQ10 in each sample was determined by comparison to a standard curve.
In the experimental trials, about 1×10^6 HASMC, HepG2, or PaCa2 cells were plated into each well of a 6 well plate. At the time of plating, the cells were treated with defined concentrations of CoQ10, in triplicate, in isopropanol or a proprietary CoQ10 delivery formulation for 3, 6, or 24 hours. After the defined incubation time, the cells were washed with cold TPBS (PBS with 100 mM Tris, pH 7.4), harvested by trypsinization, washed (2×) with 1 ml of TPBS, and pelleted by centrifugation at 1,500 RPM. Immediately after trypsinization, the cells were counted to determine the total number of viable cells in the sample.
Cell pellets were resuspended in 200 μL of Buffer A (first extraction buffer) and 10 μL of Buffer B (surfactant/detergent). Upon addition of Buffer B, the sample became opaque and a precipitate formed. The resuspended cells were transferred to a borosilicate vial. For control samples not containing cells, the CoQ10 containing solution was added to a glass vial and hexane was added to bring the volume to 200 μl, and 10 μl of Buffer B was then added.
The vials were incubated at 65° C. for 2 minutes in a water bath, with gentle mixing at about half way through the incubation. The sample changed from cloudy to clear during the incubation. The sample was removed from the water bath and 200 μL of Buffer C (second extraction buffer) was added to the vial. The sample partitioned into two phases, polar and non-polar. The top, non-polar, layer was clear, while a white precipitate formed the bottom of the vial. The sample was again heated at 65° C. for 1 minute with gentle mixing about half way through the incubation. The solution was cooled to room temperature and a 75 μL aliquot of the upper phase was placed in a quartz cuvette and analyzed by UV spectrophotometry at a wavelength of 275 nm. The absorption was documented.
For quantitative assessment of CoQ10 in the biological samples, a standard curve was generated essentially as set forth above (Example 2). For each independent determination of CoQ10, the standard curve was generated by making a 50 μM CoQ10 stock solution in hexane and serially diluting of the stock material. Each of the samples from the serial dilution was measured at a wavelength of 275 nm in a UV spectrometer and plotted on a graph. […]

PaCa2 cells [2] = assay: CoQ10 level in PaCa2 cells after CoQ10 treatment; Buffer A/B/C extraction, UV spectrophotometry at 275 nm; assay type: in vitro ADME, human; settings: 100 μM CoQ10 in isopropanol, OD275 detection, replicates 1-3
Text: as §1
In the experimental trials, about 1×10^6 HASMC, HepG2, or PaCa2 cells were plated into each well of a 6 well plate. […] Immediately after trypsinization, the cells were counted to determine the total number of viable cells in the sample. […]
The vials were incubated at 65° C. for 2 minutes in a water bath, with gentle mixing at about half way through the incubation. […] The solution was cooled to room temperature and a 75 μL aliquot of the upper phase was placed in a quartz cuvette and analyzed by UV spectrophotometry at a wavelength of 275 nm. […]
For quantitative assessment of CoQ10 in the biological samples, a standard curve was generated essentially as set forth above (Example 2). […] Each of the samples from the serial dilution was measured at a wavelength of 275 nm in a UV spectrometer and plotted on a graph.
A power series was used to fit the standard curve from the standard and an equation was determined. […]

HepG2 cells [3] = assay: CoQ10 level in HepG2 cells after CoQ10 treatment; extraction with methanol alone, LC/MS/MS detection; assay type: in vitro ADME; settings: 100 μM CoQ10 in isopropanol, replicates 1-3
Description: (§2) To further validate the utility of the spectrophotometric method for the quantitative assessment of CoQ10 in biological samples, the experiment described above was repeated using HASMC, HepG2, and PaCa2 cell lines. Further, a second set of cell samples were prepared using each of the three cell types for analysis to determine CoQ10 levels using LC/MS/MS methods routinely used in the art. Briefly, cells were plated and treated with CoQ10 in isopropanol or the CoQ10 proprietary delivery formulation as set forth above, and harvested at 3, 6, or 24 hours after plating. Cell pellets were either extracted using the method set forth above, resuspending the cells in Buffers A and B, and extracting the CoQ10 with Buffer C, or the cell pellets were sent to a diagnostic laboratory (IriSys Research & Development Inc) for quantitative assessment of CoQ10 using extraction with methanol alone followed by LC/MS/MS detection.

PaCa2 cells [4] = assay: CoQ10 level in PaCa2 cells after CoQ10 treatment; extraction with methanol alone, LC/MS/MS detection; assay type: in vitro ADME, human; settings: 100 μM CoQ10 in isopropanol, replicates 1-3
Description: as §2

Structure (SMILES): COC1=C(OC)C(=O)C(C/C=C(\C)CC/C=C(\C)CC/C=C(\C)CC/C=C(\C)CC/C=C(\C)CC/C=C(\C)CC/C=C(\C)CC/C=C(\C)CC/C=C(\C)CCC=C(C)C)=C(C)C1=O [CoQ10, Coenzyme Q10]
- average level of CoQ10 in cells (HepG2 cells [1]; 50 μM in propanol, 3 hours): 14.40 pM/cell
- average level of CoQ10 in cells (HepG2 cells [1]; 50 μM in propanol, 6 hours): 27.07 pM/cell
- average level of CoQ10 in cells (HepG2 cells [1]; 50 μM in propanol, 24 hours): 37.04 pM/cell
- average level of CoQ10 in cells (HepG2 cells [1]; 100 μM in propanol, 3 hours): 25.20 pM/cell
- average level of CoQ10 in cells (HepG2 cells [1]; 100 μM in propanol, 6 hours): 34.74 pM/cell
- average level of CoQ10 in cells (HepG2 cells [1]; 100 μM in propanol, 24 hours): 45.43 pM/cell
- CoQ10 (HepG2 cells [1]; 50 μM CoQ10 in isopropanol): 39.76 µM and 41.84 µM and 51.45 µM
- Conc (pM/cell) (HepG2 cells [1]; 50 μM CoQ10 in isopropanol): 29.6 pM/cell and 30.7 pM/cell and 51.9 pM/cell
- CoQ10 (HepG2 cells [1]; 100 μM CoQ10 in isopropanol): 36.08 µM and 49.71 µM and 50.51 µM
- Conc (pM/cell) (HepG2 cells [1]; 100 μM CoQ10 in isopropanol): 70.7 pM/cell and 121.2 pM/cell and 101 pM/cell
- CoQ10 (PaCa2 cells [2]): 28.46 µM and 12.5 µM and 4.05 µM
- Conc (pM/cell) (PaCa2 cells [2]): 1.56 pM/cell and 9.09 pM/cell and 3.2 pM/cell
- CoQ10 (HepG2 cells [3]): 2.061 µM and 1.223 µM and 1.599 µM
- Conc (pM/cell) (HepG2 cells [3]): 0.34 pM/cell and 0.24 pM/cell (2×)
- CoQ10 (PaCa2 cells [4]): 0.371 µM and 1.917 µM and 1.186 µM
- Conc (pM/cell) (PaCa2 cells [4]): 0.31 pM/cell and 0.17 pM/cell and 0.12 pM/cell
